Laboratory results: publication PMC3637938 (Chemical research in toxicology, 2013)

Tests used:
FLAG-Trx2 = biological target: T1, FLAG-Trx2 (Saccharomyces cerevisiae, UniProt P22803); test: cross-linking in yeast cells, anti-FLAG immunoblot; type: cell-based; conditions: covalent; 1 h
T1 sequence (P22803 2-104): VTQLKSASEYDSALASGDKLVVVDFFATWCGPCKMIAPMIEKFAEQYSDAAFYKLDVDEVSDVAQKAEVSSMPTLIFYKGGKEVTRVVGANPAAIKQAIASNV

FLAG-Tsa1 = biological target: T2, FLAG-Tsa1 (Saccharomyces cerevisiae, UniProt P34760); test: cross-linking in yeast cells, anti-FLAG immunoblot; type: cell-based; conditions: covalent; 1 h
T2 sequence (P34760 2-196): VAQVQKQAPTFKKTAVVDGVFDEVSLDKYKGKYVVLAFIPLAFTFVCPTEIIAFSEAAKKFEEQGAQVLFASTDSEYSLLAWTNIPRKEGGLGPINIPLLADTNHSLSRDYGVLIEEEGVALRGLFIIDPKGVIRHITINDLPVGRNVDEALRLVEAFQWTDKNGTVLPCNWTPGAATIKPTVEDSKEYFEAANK

SMILES | cross-linking in yeast cells, anti-FLAG immunoblot (FLAG-Trx2) | cross-linking in yeast cells, anti-FLAG immunoblot (FLAG-Tsa1)
C1OC1C1CO1 (stereo not shown) [1,2,3,4-diepoxybutane] | each of these bifunctional electrophiles promotes cross-linking of Trx2 and Tsa1 in yeast | each of these bifunctional electrophiles promotes cross-linking of Trx2 and Tsa1 in yeast
CCOC(=O)C#CC(=O)OCC [diethyl acetylenedicarboxylate] | each of these bifunctional electrophiles promotes cross-linking of Trx2 and Tsa1 in yeast | each of these bifunctional electrophiles promotes cross-linking of Trx2 and Tsa1 in yeast
